In test [1] the target is Thymidine phosphorylase (Escherichia coli K-12) (UniProt P07650). Nature of the test: Activity of 10 U/mL Escherichia coli thymidine phosphorylase assessed as drug phosphorylation after 1 week.
The target is the same in test [2]. In words: Activity of 10 U/mL Escherichia coli thymidine phosphorylase assessed as drug phosphorylation after 24 hrs.
For test [3] the target is unchanged. Nature of the test: Activity of Escherichia coli thymidine phosphorylase assessed as drug phosphorylation after 2 hrs. Also on record: concentration or dose not given beside the values.
Test [4] has the same target. Nature of the test: Activity of Escherichia coli thymidine phosphorylase assessed as drug phosphorylation after 1 hr. The arrangement: concentration or dose not given beside the values.
Test [5] shares this target. Nature of the test: Activity of Escherichia coli thymidine phosphorylase assessed as drug phosphorylation after 24 hrs.
Test [6] has the same target. In words: Activity of 1 U/mL Escherichia coli thymidine phosphorylase assessed as drug phosphorylation after 1 hr.

Sequence of Thymidine phosphorylase (Escherichia coli K-12) (P07650 whole entry, looked up): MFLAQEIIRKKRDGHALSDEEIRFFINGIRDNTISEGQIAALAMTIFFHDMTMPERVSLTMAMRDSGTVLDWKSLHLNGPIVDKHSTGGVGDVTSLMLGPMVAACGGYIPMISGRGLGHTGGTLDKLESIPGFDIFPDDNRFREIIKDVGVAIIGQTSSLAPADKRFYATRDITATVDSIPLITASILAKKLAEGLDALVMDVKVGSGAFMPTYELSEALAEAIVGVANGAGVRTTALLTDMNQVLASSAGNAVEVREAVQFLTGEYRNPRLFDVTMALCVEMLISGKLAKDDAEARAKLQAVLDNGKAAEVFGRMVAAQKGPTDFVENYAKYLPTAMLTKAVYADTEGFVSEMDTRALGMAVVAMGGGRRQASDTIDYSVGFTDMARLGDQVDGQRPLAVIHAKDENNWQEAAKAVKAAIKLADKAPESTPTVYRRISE

As for `Cc1cn([C@@H]2C[C@H](O)[C@@H](CO)O2)c(=O)[nH]c1=O`, the Activity in test [1] and in test [2] was 0% throughout.
For the molecule `Cc1cn([C@H]2C[C@H](O)C[C@@H](CO)O2)c(=O)[nH]c1=O`, the Activity in test [2] came out at 0%.
For the molecule `Cc1cn([C@H]2C[C@H](N)[C@@H](CO)O2)c(=O)[nH]c1=O`, the Activity is 1.5% in test [3] and 0.76% in test [4].
Take `Cc1cn([C@H]2C[C@H](O)[C@@H](C)O2)c(=O)[nH]c1=O`: the Activity in test [3] was 91%; in test [4] it was 68%.
For the molecule `Cc1cn([C@@H]2C[C@H](O)[C@@H](CO)S2)c(=O)[nH]c1=O`, in test [2], the Activity worked out at 0%.
Consider `Cc1cn([C@H]2C[C@H](O)[C@@H](CI)O2)c(=O)[nH]c1=O`, for which the Activity in test [3] and in test [4] was 0% throughout.
Turning to `Cc1cn([C@H]2C[C@H](O)[C@@H](CN)O2)c(=O)[nH]c1=O`, the Activity worked out at 36% in test [3] and 11% in test [4].
The matching figures for `Cc1cn([C@H]2C[C@H](O)[C@@H](CCl)O2)c(=O)[nH]c1=O`: 70% and 24%.
On to `O=c1ccn([C@@H]2O[C@H](CO)[C@@H](O)[C@H]2O)c(=O)[nH]1`, for which the Activity was 81% in test [3] and 56% in test [4].
Turning to `Nc1ccn([C@H]2C[C@H](O)[C@@H](CO)O2)c(=O)n1`, the Activity in test [1] and in test [2] was 0% throughout.
On to `O=c1ccn([C@H]2C[C@H](O)[C@@H](CO)O2)c(=O)[nH]1`, for which the Activity in test [3] amounted to 88%; in test [5], 83%.
In the case of `Cc1cn([C@H]2C[C@H](O)[C@@H](CO)S2)c(=O)[nH]c1=O`, in test [2], the Activity turned out to be 3.8%.
On to `Cc1cn([C@H]2C[C@H](O)[C@@H](CS)O2)c(=O)[nH]c1=O`, for which the figures for the Activity in test [3] and in test [4] were 90% and 39%, respectively.
Turning to `Cc1cn(COC(CO)CO)c(=O)[nH]c1=O`, the Activity in test [2] was 0%.
Regarding `Cc1nn([C@H]2C[C@H](O)[C@@H](CO)O2)c(=O)[nH]c1=O`, the Activity in test [1] turned out to be 7.9%; in test [2] it was 5.4%.
As to `Cc1cn([C@H]2CC[C@@H](CO)O2)c(=O)[nH]c1=O`, the Activity in test [3] was 6.1%; in test [4] it was 3.2%.
In the same order, the values of `Cc1cn([C@H]2C[C@H](O)[C@@H](CN=[N+]=[N-])O2)c(=O)[nH]c1=O` are 0% and 0%.
In the case of `Cc1cn([C@H]2CC(O)[C@@H](CO)O2)c(=O)[nH]c1=O` (single isomer, unassigned), the Activity in test [3] and in test [4] was 0% each time.
On to `Cc1cnc(=O)n([C@H]2C[C@H](O)[C@@H](CO)O2)c1`, for which the Activity in test [1] and in test [2] was 0% throughout.
With `Cc1cn([C@H]2C[C@H](S)[C@@H](CO)O2)c(=O)[nH]c1=O`, the Activity in test [3] and in test [4] was 0% each time.
With `Cc1cn([C@H]2C[C@H](O)[C@@H](CO)O2)c(=O)[nH]c1=O`, the Activity in test [6] is 86%; in test [3], 86%; in test [5], 82%; in test [4] it was 86%.

The values above are taken from ChEMBL document CHEMBL1157152, “Kinetic parameters and recognition of thymidine analogues with varying functional groups by thymidine phosphorylase” (Bioorg Med Chem, 2008).
